Measurements reported in PubChem BioAssay (NCI).
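How tested: cells in 96-well plates exposed to compound for 48 hours at five concentrations. The concentration for 50% growth inhibition is given as GI50. The concentration for full growth arrest is given as TGI.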

Assays:
Test in all cases: NCI anticancer screen, dose series, 48 h
OVCAR-3 ovarian = test system: OVCAR-3 ovarian
SF-268 CNS = test system: SF-268 CNS
LOX IMVI melanoma = test system: LOX IMVI melanoma
HCC-2998 colon = test system: HCC-2998 colon
DU-145 prostate = test system: DU-145 prostate
T-47D breast = test system: T-47D breast
A498 renal = test system: A498 renal
HCT-116 colon = test system: HCT-116 colon
SNB-19 CNS = test system: SNB-19 CNS
SW-620 colon = test system: SW-620 colon
IGROV1 ovarian = test system: IGROV1 ovarian
NCI-H23 lung = test system: NCI-H23 lung
HL-60(TB) leukemia = test system: HL-60(TB) leukemia
MCF7 breast = test system: MCF7 breast
EKVX NSCLC = test system: EKVX NSCLC
M14 melanoma = test system: M14 melanoma
SK-MEL-28 melanoma = test system: SK-MEL-28 melanoma
HCT-15 colon = test system: HCT-15 colon
OVCAR-8 ovarian = test system: OVCAR-8 ovarian
OVCAR-4 ovarian = test system: OVCAR-4 ovarian
SNB-75 CNS = test system: SNB-75 CNS
COLO 205 colon = test system: COLO 205 colon
RPMI-8226 leukemia = test system: RPMI-8226 leukemia
NCI-H522 lung = test system: NCI-H522 lung
OVCAR-5 ovarian = test system: OVCAR-5 ovarian
KM12 colon = test system: KM12 colon
U251 CNS = test system: U251 CNS
HOP-92 NSCLC = test system: HOP-92 NSCLC
TK-10 renal = test system: TK-10 renal
NCI/ADR-RES ovarian = test system: NCI/ADR-RES ovarian
SK-MEL-2 melanoma = test system: SK-MEL-2 melanoma
UACC-257 melanoma = test system: UACC-257 melanoma
UO-31 renal = test system: UO-31 renal
UACC-62 melanoma = test system: UACC-62 melanoma
HS 578T breast = test system: HS 578T breast
HOP-62 NSCLC = test system: HOP-62 NSCLC
A549 NSCLC = test system: A549 NSCLC
CAKI-1 renal = test system: CAKI-1 renal
SF-539 CNS = test system: SF-539 CNS
HT29 colon = test system: HT29 colon
SK-MEL-5 melanoma = test system: SK-MEL-5 melanoma
K-562 leukemia = test system: K-562 leukemia
NCI-H460 lung = test system: NCI-H460 lung
NCI-H226 lung = test system: NCI-H226 lung
SN12C renal = test system: SN12C renal
SF-295 CNS = test system: SF-295 CNS
SR leukemia = test system: SR leukemia
MDA-MB-435 = test system: MDA-MB-435
ACHN renal = test system: ACHN renal
PC-3 prostate = test system: PC-3 prostate
MALME-3M melanoma = test system: MALME-3M melanoma
CCRF-CEM leukemia = test system: CCRF-CEM leukemia
MDA-MB-231 breast = test system: MDA-MB-231 breast
MOLT-4 leukemia = test system: MOLT-4 leukemia
RXF 393 renal = test system: RXF 393 renal

Question: Which GI50 (OVCAR-3 ovarian) does the source give for `O=C(Nc1ccc(-n2cc(-c3ccncc3)c(-c3ccc(O)c(Cl)c3)n2)cc1)c1cc(C(F)(F)F)cc(C(F)(F)F)c1` here?
Answer: 7.42 µM

Question: And the TGI (OVCAR-3 ovarian)?
Answer: > 25 µM

Question: And the GI50 (SF-268 CNS)?
Answer: 9.33 µM

Question: And the TGI (SF-268 CNS)?
Answer: > 25 µM

Question: What about the GI50 (LOX IMVI melanoma) of the same compound?
Answer: 5.59 µM

Question: And the TGI (LOX IMVI melanoma)?
Answer: > 25 µM

Question: What about the GI50 (HCC-2998 colon) of the same compound?
Answer: 9.89 µM

Question: And the TGI (HCC-2998 colon)?
Answer: > 25 µM

Question: What about the GI50 (DU-145 prostate) of the same compound?
Answer: 9.69 µM

Question: And the TGI (DU-145 prostate)?
Answer: > 25 µM

Question: And the GI50 (T-47D breast)?
Answer: 12.2 µM

Question: And the TGI (T-47D breast)?
Answer: > 25 µM

Question: And the GI50 (A498 renal)?
Answer: 14.1 µM

Question: What about the TGI (A498 renal) of the same compound?
Answer: > 25 µM

Question: And the GI50 (HCT-116 colon)?
Answer: 6.24 µM

Question: What about the TGI (HCT-116 colon) of the same compound?
Answer: > 25 µM

Question: And the GI50 (SNB-19 CNS)?
Answer: 11.9 µM

Question: What about the TGI (SNB-19 CNS) of the same compound?
Answer: > 25 µM

Question: And the GI50 (SW-620 colon)?
Answer: 11.1 µM

Question: What about the TGI (SW-620 colon) of the same compound?
Answer: > 25 µM

Question: And the GI50 (IGROV1 ovarian)?
Answer: 12.7 µM

Question: What about the TGI (IGROV1 ovarian) of the same compound?
Answer: > 25 µM

Question: What about the GI50 (NCI-H23 lung) of the same compound?
Answer: 9.8 µM

Question: And the TGI (NCI-H23 lung)?
Answer: > 25 µM

Question: And the GI50 (HL-60(TB) leukemia)?
Answer: 5.8 µM

Question: And the TGI (HL-60(TB) leukemia)?
Answer: 18 µM

Question: And the GI50 (MCF7 breast)?
Answer: 8.46 µM

Question: And the TGI (MCF7 breast)?
Answer: > 25 µM

Question: And the GI50 (EKVX NSCLC)?
Answer: 11.1 µM

Question: And the TGI (EKVX NSCLC)?
Answer: > 25 µM

Question: What about the GI50 (M14 melanoma) of the same compound?
Answer: 3.58 µM

Question: And the TGI (M14 melanoma)?
Answer: 9.58 µM

Question: What about the GI50 (SK-MEL-28 melanoma) of the same compound?
Answer: 6.07 µM

Question: And the TGI (SK-MEL-28 melanoma)?
Answer: 23.3 µM

Question: And the GI50 (HCT-15 colon)?
Answer: 4.84 µM

Question: And the TGI (HCT-15 colon)?
Answer: 15.5 µM

Question: And the GI50 (OVCAR-8 ovarian)?
Answer: 11.8 µM

Question: And the TGI (OVCAR-8 ovarian)?
Answer: > 25 µM

Question: And the GI50 (OVCAR-4 ovarian)?
Answer: 8.12 µM

Question: And the TGI (OVCAR-4 ovarian)?
Answer: > 25 µM

Question: And the GI50 (SNB-75 CNS)?
Answer: 3.73 µM

Question: What about the TGI (SNB-75 CNS) of the same compound?
Answer: > 25 µM

Question: And the GI50 (COLO 205 colon)?
Answer: 10.8 µM

Question: What about the TGI (COLO 205 colon) of the same compound?
Answer: > 25 µM

Question: And the GI50 (RPMI-8226 leukemia)?
Answer: 2.34 µM

Question: What about the TGI (RPMI-8226 leukemia) of the same compound?
Answer: 13.5 µM

Question: And the GI50 (NCI-H522 lung)?
Answer: 4.6 µM

Question: And the TGI (NCI-H522 lung)?
Answer: > 25 µM

Question: And the GI50 (OVCAR-5 ovarian)?
Answer: 9.18 µM

Question: And the TGI (OVCAR-5 ovarian)?
Answer: > 25 µM

Question: And the GI50 (KM12 colon)?
Answer: 7.85 µM

Question: What about the TGI (KM12 colon) of the same compound?
Answer: > 25 µM

Question: What about the GI50 (U251 CNS) of the same compound?
Answer: 4.55 µM

Question: What about the TGI (U251 CNS) of the same compound?
Answer: > 25 µM

Question: What about the GI50 (HOP-92 NSCLC) of the same compound?
Answer: 1.04 µM

Question: And the TGI (HOP-92 NSCLC)?
Answer: 13.7 µM

Question: And the GI50 (TK-10 renal)?
Answer: 5.87 µM

Question: And the TGI (TK-10 renal)?
Answer: > 25 µM

Question: And the GI50 (NCI/ADR-RES ovarian)?
Answer: 11.1 µM

Question: What about the TGI (NCI/ADR-RES ovarian) of the same compound?
Answer: > 25 µM

Question: What about the GI50 (SK-MEL-2 melanoma) of the same compound?
Answer: 5.08 µM

Question: And the TGI (SK-MEL-2 melanoma)?
Answer: 12.7 µM

Question: And the GI50 (UACC-257 melanoma)?
Answer: 14.7 µM

Question: What about the TGI (UACC-257 melanoma) of the same compound?
Answer: > 25 µM

Question: What about the GI50 (UO-31 renal) of the same compound?
Answer: 5.3 µM

Question: And the TGI (UO-31 renal)?
Answer: > 25 µM

Question: And the GI50 (UACC-62 melanoma)?
Answer: 5.35 µM

Question: What about the TGI (UACC-62 melanoma) of the same compound?
Answer: 12.9 µM

Question: And the GI50 (HS 578T breast)?
Answer: 6.1 µM

Question: What about the TGI (HS 578T breast) of the same compound?
Answer: > 25 µM

Question: And the GI50 (HOP-62 NSCLC)?
Answer: 12.5 µM

Question: What about the TGI (HOP-62 NSCLC) of the same compound?
Answer: > 25 µM

Question: And the GI50 (A549 NSCLC)?
Answer: 9.11 µM

Question: And the TGI (A549 NSCLC)?
Answer: > 25 µM

Question: And the GI50 (CAKI-1 renal)?
Answer: 6.57 µM

Question: And the TGI (CAKI-1 renal)?
Answer: > 25 µM

Question: What about the GI50 (SF-539 CNS) of the same compound?
Answer: 3.57 µM

Question: What about the TGI (SF-539 CNS) of the same compound?
Answer: 12.9 µM

Question: What about the GI50 (HT29 colon) of the same compound?
Answer: 5.01 µM

Question: And the TGI (HT29 colon)?
Answer: 13.4 µM

Question: And the GI50 (SK-MEL-5 melanoma)?
Answer: 5.68 µM

Question: What about the TGI (SK-MEL-5 melanoma) of the same compound?
Answer: 19 µM

Question: And the GI50 (K-562 leukemia)?
Answer: 4.75 µM

Question: What about the TGI (K-562 leukemia) of the same compound?
Answer: > 25 µM

Question: And the GI50 (NCI-H460 lung)?
Answer: 7.23 µM

Question: And the TGI (NCI-H460 lung)?
Answer: > 25 µM

Question: And the GI50 (NCI-H226 lung)?
Answer: > 25 µM

Question: What about the TGI (NCI-H226 lung) of the same compound?
Answer: > 25 µM

Question: And the GI50 (SN12C renal)?
Answer: 8.93 µM

Question: And the TGI (SN12C renal)?
Answer: > 25 µM

Question: What about the GI50 (SF-295 CNS) of the same compound?
Answer: 4.71 µM

Question: What about the TGI (SF-295 CNS) of the same compound?
Answer: 15 µM

Question: What about the GI50 (SR leukemia) of the same compound?
Answer: 8.79 µM

Question: And the TGI (SR leukemia)?
Answer: > 25 µM

Question: And the GI50 (MDA-MB-435)?
Answer: 5.79 µM

Question: What about the TGI (MDA-MB-435) of the same compound?
Answer: > 25 µM

Question: What about the GI50 (ACHN renal) of the same compound?
Answer: 8.41 µM

Question: What about the TGI (ACHN renal) of the same compound?
Answer: > 25 µM

Question: What about the GI50 (PC-3 prostate) of the same compound?
Answer: 5.02 µM

Question: And the TGI (PC-3 prostate)?
Answer: > 25 µM

Question: And the GI50 (MALME-3M melanoma)?
Answer: 4.66 µM

Question: And the TGI (MALME-3M melanoma)?
Answer: 16.7 µM

Question: And the GI50 (CCRF-CEM leukemia)?
Answer: 4.09 µM

Question: And the TGI (CCRF-CEM leukemia)?
Answer: 21.8 µM

Question: What about the GI50 (MDA-MB-231 breast) of the same compound?
Answer: 2.92 µM

Question: And the TGI (MDA-MB-231 breast)?
Answer: 6.8 µM

Question: What about the GI50 (MOLT-4 leukemia) of the same compound?
Answer: 3.89 µM

Question: What about the TGI (MOLT-4 leukemia) of the same compound?
Answer: 15.5 µM

Question: And the GI50 (RXF 393 renal)?
Answer: 3.1 µM

Question: What about the TGI (RXF 393 renal) of the same compound?
Answer: 6.58 µM
